What was measured:
Format in all cases: physicochemical
[1] = Water solubility of e-CBD compounds, 5 wt % actives in water
From the text: (§1) The alkoxylated product that results from the above reaction conditions can be characterized using common analytical techniques, including hydroxyl value, melting point, unreacted cannabinoid (wt %), cloud point (5 wt % in water), pH (5 wt % in water), ^1H NMR-structural analysis, and appearance. Comparisons between a cannabinoid and its alkoxylated form (such as CBD and e-CBD in EXAMPLE 1 below) are made in Table 1 exemplifying how the e-CBD having a (POE) value of 12 behaves differently as compared to its non-ethoxylated precursor. While these properties are strongly dependent on the number of moles of EO used in relation to the equivalents of CBD, in order to obtain a water soluble or dispersible product, the number of moles of EO in the e-CBD may be between about 1-100, more preferably between about 10-25.
By varying the molar ratio of the epoxide-to-cannabinoid starter compound to produce a product having a (POE) value between 7 and 36, the hydrophilicity of the cannabinoid may be tuned (see Table 2). The water solubility of the alkoxylated-CBD compounds (Examples 1-4) was determined at room (25° C.) and physiological (37° C.) temperatures.

[2] = Cloud point, 5 wt % actives in water
From the text: as §1

pH of 5 wt % in water = assay: pH of 5 wt % in water
From the text: as §1

C=C(C)[C@@H]1CCC(C)=C[C@H]1c1c(O)cc(CCCCC)cc1O [CBD, cannabidiol]
Insoluble: Water Solubility (5 wt % in water at 37° C.) ([1]; Table 1, 5 wt % in water, 37° C.) | Water Solubility (5 wt % actives in water at 25° C.) ([1]; Table 2, 5 wt % actives in water, 25° C. (room temperature)) | Water Solubility (5 wt % actives in water at 37° C.) ([1]; Table 2, 5 wt % actives in water, 37° C. (physiological temperature)) | Cloud Point (° C., 5 wt % actives in water) [2] | pH (5 wt % in water at 25° C.) (pH of 5 wt % in water)

Reference: patent US20240383831A1, “ALKOXYLATION OF CANNABIDIOL AND OTHER CANNABINOIDS” (Indorama Ventures Oxides LLC, priority 2021, published 2024)
